Measured values as given in patent US12605753B2, “Enhanced microbial production of biosurfactants and other products, and uses thereof” (LOCUS SOLUTIONS IPCO, LLC, priority 2015, dated 2026).

tested on: Bacillus subtilis B1, B2, and B3 strains; assay: PCR with primers for unique signature sequences; details: amplicon generated by the forward/reverse primer pair (LSBS n-F / n-R) specific for Bacillus subtilis B1, B2, B3 strains
Text: Table 7 below depicts thirteen (13) pairs of primers specifically designed for the Bacillus subtilis B1, B2, and B3 strains. All 13 primers generate unique PCR amplicons for identifying the Bacillus subtilis strains of the present invention. The subsequent PCR products are unique and are not found performing a search (i.e., BLAST search) in a database such as the GenBank database.

| Substance | PCR Product Size (bp) |
| --- | --- |
| LSBS 9-F (DNA GCCATCAGGCTGTTTGTAGA; listed as DNA, chemistry not given here) | 679 bp |
| LSBS 10-F (DNA CAGATGAAGTTGGTGGTGTTTC; listed as DNA, chemistry not given here) | 743 bp |
| LSBS 6-F (DNA CACCGAACTCTGCTGAGAAA; listed as DNA, chemistry not given here) | 523 bp |
| LSBS 8-F (DNA GCTGTAGACGACTGGGTACTA; listed as DNA, chemistry not given here) | 750 bp |
| LSBS 12-F (DNA TGTCCCTCTTTAGGTGCTATTG; listed as DNA, chemistry not given here) | 954 bp |
| LSBS 13-F (DNA CCCTCTAGCTCTTTCTTCTTCAC; listed as DNA, chemistry not given here) | 496 bp |
| LSBS 1-F (DNA GGACACAGATCATTGGGAGTT; listed as DNA, chemistry not given here) | 769 bp |
| LSBS 4-F (DNA CATGCGGAACTCCAATTTCTTC; listed as DNA, chemistry not given here) | 263 bp |
| LSBS 2-F (DNA TCAATTCCTCTGCACCACTTAT; listed as DNA, chemistry not given here) | 906 bp |
| LSBS 11-F (DNA ATGCGGCTAGACATGGATATG; listed as DNA, chemistry not given here) | 687 bp |
| LSBS 5-F (DNA CCATTAGGGTCAACATGGTCTAA; listed as DNA, chemistry not given here) | 273 bp |
| LSBS 3-F (DNA CGGAGTTTGTTAGCGAAGTTATTG; listed as DNA, chemistry not given here) | 543 bp |
| LSBS 7-F (DNA CCTCTGCCCAAGACATATCAA; listed as DNA, chemistry not given here) | 913 bp |
